18 compounds from the Kinase Knowledgebase extract (Sharma et al. 2016) can be followed below.

Some results are limits rather than exact numbers.

Assay [1] addresses EGFR (human) (UniProt P00533). The note with it: mcf-7.
The target of assay [2] is EGFR (human) (UniProt P00533). The note with it: uacc-62.
Assay [3] addresses EGFR (human) (UniProt P00533). The note with it: du-145.
Assay [4] concerns the target EGFR (human) (UniProt P00533). The note with it: hop-62.
For assay [5], the target named is EGFR (human) (UniProt P00533). The note with it: sf-539.
Assay [6] deals with EGFR (human) (UniProt P00533). The note with it: sn12c.
For assay [7], the target named is EGFR (human) (UniProt P00533). The note with it: hct-116.
Assay [8] deals with EGFR (human) (UniProt P00533). The note with it: ccrf-cem.
Assay [9] concerns the target EGFR (human) (UniProt P00533). The note with it: ovcar-3.
The target of assay [10] is EGFR (human) (UniProt P00533). The note with it: mda-mb-435.
Another assay concerns the target EGFR (mouse) (UniProt P00533). The note with it: baf3.

Chain of EGFR (human) (P00533 whole entry, looked up): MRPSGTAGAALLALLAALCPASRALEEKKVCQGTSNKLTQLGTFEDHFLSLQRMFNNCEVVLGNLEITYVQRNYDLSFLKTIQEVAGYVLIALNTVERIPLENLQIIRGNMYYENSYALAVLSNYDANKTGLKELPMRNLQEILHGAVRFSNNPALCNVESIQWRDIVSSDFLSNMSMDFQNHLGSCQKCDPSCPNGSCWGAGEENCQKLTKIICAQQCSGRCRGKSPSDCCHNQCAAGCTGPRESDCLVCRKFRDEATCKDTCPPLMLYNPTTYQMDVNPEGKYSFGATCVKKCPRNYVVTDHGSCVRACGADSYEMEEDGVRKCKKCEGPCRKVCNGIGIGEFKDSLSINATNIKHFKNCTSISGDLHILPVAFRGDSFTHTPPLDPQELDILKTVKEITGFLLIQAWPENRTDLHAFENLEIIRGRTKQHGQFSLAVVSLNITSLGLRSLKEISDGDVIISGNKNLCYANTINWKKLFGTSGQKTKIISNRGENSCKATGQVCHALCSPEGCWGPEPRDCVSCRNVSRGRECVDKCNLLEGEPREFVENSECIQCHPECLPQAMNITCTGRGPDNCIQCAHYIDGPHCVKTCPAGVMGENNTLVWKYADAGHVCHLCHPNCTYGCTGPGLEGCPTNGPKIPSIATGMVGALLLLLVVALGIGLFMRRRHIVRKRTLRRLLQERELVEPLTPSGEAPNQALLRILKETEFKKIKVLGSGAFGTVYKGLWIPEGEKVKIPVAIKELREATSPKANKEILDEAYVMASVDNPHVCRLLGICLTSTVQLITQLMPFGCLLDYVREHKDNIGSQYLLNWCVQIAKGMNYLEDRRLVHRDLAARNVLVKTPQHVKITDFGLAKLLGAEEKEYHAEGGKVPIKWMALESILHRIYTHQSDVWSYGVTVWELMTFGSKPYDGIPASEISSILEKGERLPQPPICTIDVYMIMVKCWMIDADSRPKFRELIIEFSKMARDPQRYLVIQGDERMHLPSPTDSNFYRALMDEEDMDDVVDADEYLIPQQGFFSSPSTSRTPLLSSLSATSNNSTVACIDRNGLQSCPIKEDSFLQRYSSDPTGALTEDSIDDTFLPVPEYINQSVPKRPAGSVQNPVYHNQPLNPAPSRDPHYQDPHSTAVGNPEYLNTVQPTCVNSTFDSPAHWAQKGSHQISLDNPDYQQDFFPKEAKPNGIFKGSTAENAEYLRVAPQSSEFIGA

In the case of `CC(C)CCCC(C)[C@H]1CCC2C3CCC4C[C@@H](NC(=O)c5cc(NCc6cc(O)ccc6O)ccc5O)CC[C@]4(C)C3CC[C@@]21C` (stereo partly drawn), on EGFR (human) [1], the half-maximal inhibitory concentration (IC50) (commonly the concentration at which inhibition is half-maximal) is > 50 µM.

Take `O=C(NCCc1ccccc1)c1cccc(NCc2cc(O)ccc2O)c1`: the concentration for half-maximal inhibition (IC50) against EGFR (human) [2] is 13 µM; against EGFR (human) [3], 17 µM; against EGFR (human) [4], 3.8 µM; at EGFR (human) [5], 15 µM; against EGFR (human) [6] it was 13 µM; against EGFR (human) [7] it was 16 µM. Further, the values for the IC50 against EGFR (human) [8], at EGFR (human) [9] and at EGFR (human) [10] were 4.4 µM, 2.8 µM and 15 µM, respectively.

Consider `O=C(NCc1ccccc1)c1cc(NCc2cc(O)ccc2O)ccc1O`, for which the 50% inhibitory concentration (IC50) came to 15 µM against EGFR (human) [2]; 16 µM at EGFR (human) [3]; 23 µM on EGFR (human) [4]; 21 µM against EGFR (human) [5]; 12 µM against EGFR (human) [6]; 21 µM against EGFR (human) [9]. Besides, the IC50 against EGFR (human) [10] was determined as 30 µM.

Regarding `O=C(NCCc1ccccc1)c1ccc(NCc2cc(O)ccc2O)cc1`, the IC50 against EGFR (human) [2] was found to be 9.4 µM; against EGFR (human) [3] it was 14 µM; against EGFR (human) [4] it was 13 µM; against EGFR (human) [5], 8.5 µM; on EGFR (human) [6] it was 7.4 µM; at EGFR (human) [7], 7.4 µM. For the same compound, the IC50 on EGFR (human) [8] was 0.59 µM; on EGFR (human) [9], 2.7 µM; with EGFR (mouse) it was > 200 µM.

Regarding `O=C(NCCc1ccc(F)cc1)c1cc(NCc2cc(O)ccc2O)ccc1O`, the concentration for half-maximal inhibition (IC50) at EGFR (human) [2] amounted to 7.8 µM; against EGFR (human) [3], 18 µM; on EGFR (human) [5], 9.2 µM; against EGFR (human) [6], 7.7 µM; against EGFR (human) [7] it was 9.2 µM; on EGFR (human) [8], 0.29 µM. Further, the IC50 at EGFR (human) [9] worked out at 11 µM; against EGFR (human) [10], 13 µM.

Take `O=C(NCCCc1ccccc1)c1cc(NCc2cc(O)ccc2O)ccc1O`: the IC50 against EGFR (human) [2] turned out to be 14 µM; at EGFR (human) [3], 8.4 µM; at EGFR (human) [4], 22 µM; on EGFR (human) [5], 16 µM; against EGFR (human) [6], 15 µM; at EGFR (human) [7] it was 24 µM. The values for the IC50 on EGFR (human) [8], against EGFR (human) [9] and against EGFR (human) [10] were 2.4 µM, 6.5 µM and 18 µM, respectively.

On to `O=C(NCCc1ccccn1)c1cc(NCc2cc(O)ccc2O)ccc1O`, for which the IC50 was 17 µM against EGFR (human) [2]; 17 µM on EGFR (human) [3]; 20 µM at EGFR (human) [4]; 29 µM against EGFR (human) [5]; 19 µM at EGFR (human) [6]; 17 µM on EGFR (human) [7]. The IC50 at EGFR (human) [8] was 1 µM; against EGFR (human) [9], 17 µM; against EGFR (human) [10] it was 13 µM.

Turning to `O=C(NCCc1ccc(Br)cc1)c1cc(NCc2cc(O)ccc2O)ccc1O`, the half-inhibitory concentration (IC50) against EGFR (human) [2] came out at 8.6 µM; on EGFR (human) [3], 16 µM; on EGFR (human) [4], 18 µM; at EGFR (human) [5], 15.8 µM; on EGFR (human) [7] it was 7.6 µM; against EGFR (human) [10] it was 10 µM.

Consider `O=C(NCc1ccccc1)c1ccc(NCc2cc(O)ccc2O)cc1`, for which the IC50 against EGFR (human) [2] was 12 µM; at EGFR (human) [3] it was 15 µM; at EGFR (human) [4], 20 µM; against EGFR (human) [5], 9.7 µM; on EGFR (human) [6] it was 9.7 µM; at EGFR (human) [7] it was 10 µM. The IC50 against EGFR (human) [8] was 2.7 µM; at EGFR (human) [9] it was 6.8 µM; with EGFR (mouse), > 100 µM; on EGFR (human) [10] it was 12 µM.

Turning to `CCCCCCNC(=O)c1cc(NCc2cc(O)ccc2O)ccc1O`, the IC50 against EGFR (human) [2] is 12 µM; against EGFR (human) [3], 15 µM; at EGFR (human) [4], 19 µM; at EGFR (human) [5], 2.3 µM; against EGFR (human) [6], 6.1 µM; against EGFR (human) [7], 17 µM. Also, the IC50 was 0.56 µM at EGFR (human) [8], 4 µM against EGFR (human) [9] and 15 µM on EGFR (human) [10].

As for `CCCCCCCCCCCCNC(=O)c1cc(NCc2cc(O)ccc2O)ccc1O`, the IC50 on EGFR (human) [2] amounted to 3.2 µM; on EGFR (human) [3], 11 µM; against EGFR (human) [4] it was 3.8 µM; against EGFR (human) [5], 20 µM; on EGFR (human) [6], 2.6 µM; against EGFR (human) [7] it was 2.1 µM. For the same compound, the figures for the IC50 at EGFR (human) [8], on EGFR (human) [9] and against EGFR (human) [10] were 0.34 µM, 1.9 µM and 3.2 µM, respectively.

In the case of `O=C(NCCc1ccccc1)c1cc(NCc2cc(O)ccc2O)ccc1O`, the IC50 was 14 µM against EGFR (human) [2]; 16 µM against EGFR (human) [3]; 20 µM on EGFR (human) [4]; 17 µM against EGFR (human) [5]; 18 µM on EGFR (human) [6]; 18 µM on EGFR (human) [7]. Further, the figures for the IC50 at EGFR (human) [8], on EGFR (human) [9] and against EGFR (human) [10] were 2.7 µM, 7.7 µM and 19 µM, respectively.

As to `O=C(NCCc1ccc(Cl)cc1)c1cc(NCc2cc(O)ccc2O)ccc1O`, the IC50 at EGFR (human) [3] worked out at 16 µM; against EGFR (human) [4] it was 17 µM; at EGFR (human) [5], 8.4 µM; on EGFR (human) [6], 9.8 µM; at EGFR (human) [7] it was 15 µM; against EGFR (human) [8], 1.6 µM. Further, the IC50 is 5.9 µM against EGFR (human) [9] and 20 µM at EGFR (human) [10].

Take `O=C(NCCc1ccc(O)cc1)c1cc(NCc2cc(O)ccc2O)ccc1O`: the IC50 is 18 µM against EGFR (human) [2]; 17 µM on EGFR (human) [3]; 2.5 µM at EGFR (human) [4]; 2.5 µM at EGFR (human) [5]; 19 µM at EGFR (human) [6]; 62 µM at EGFR (human) [9]. Further, at EGFR (human) [10], the IC50 is 23 µM.

`O=C(NCCN1CCOCC1)c1cc(NCc2cc(O)ccc2O)ccc1O`: the IC50 against EGFR (human) [2] turned out to be 17 µM; on EGFR (human) [3], 17 µM; against EGFR (human) [5], 19 µM; against EGFR (human) [6], 22 µM; against EGFR (human) [7] it was 20 µM; at EGFR (human) [8] it was 1.8 µM. Moreover, the IC50 is 87 µM against EGFR (human) [9], > 50 µM with EGFR (mouse) and 13 µM at EGFR (human) [10].

Take `O=C(NCCCc1ccccc1)c1ccc(NCc2cc(O)ccc2O)cc1`: the IC50 against EGFR (human) [2] was 7.9 µM; against EGFR (human) [3], 13 µM; against EGFR (human) [4], 16 µM; on EGFR (human) [5], 3.4 µM; on EGFR (human) [6], 3.2 µM; at EGFR (human) [7], 6.4 µM. For the same compound, the IC50 against EGFR (human) [8] was 0.83 µM.

`COc1ccc(CCNC(=O)c2cc(NCc3cc(O)ccc3O)ccc2O)cc1`: the half-maximal inhibitory concentration (IC50) against EGFR (human) [3] turned out to be 21 µM; against EGFR (human) [4], 12 µM; against EGFR (human) [5], 16 µM; against EGFR (human) [6] it was 72 µM; on EGFR (human) [7], 23 µM; at EGFR (human) [8] it was 3.2 µM. For the same compound, the IC50 was 5.5 µM at EGFR (human) [9], > 100 µM in the assay with EGFR (mouse) and 16 µM on EGFR (human) [10].

On to `O=C(NC1CCc2ccccc2C1)c1cc(NCc2cc(O)ccc2O)ccc1O` (stereo not drawn), for which the IC50 on EGFR (human) [2] was found to be 14 µM; at EGFR (human) [3], 17 µM; against EGFR (human) [4], 17 µM; against EGFR (human) [5], 2.7 µM; against EGFR (human) [6] it was 18 µM; against EGFR (human) [7], 16 µM. For the same compound, the IC50 on EGFR (human) [8] is 1.4 µM; on EGFR (human) [10] it was 9.2 µM.
